Data from ChEMBL document CHEMBL4808242, “Discovery of GNE-502 as an orally bioavailable and potent degrader for estrogen receptor positive breast cancer” (Bioorg Med Chem Lett, 2021).
Values after ≈ are worked out from the molar mass of the structure shown. Active and inactive are the calls of the source. The calls are words filed in the database; no cut-off is given here.

Experiments:
[1] = Kinetic solubility of compound at pH 7.4; assay type: physicochemical; conditions: buffer, read-out: Kinetic_solubility
Estrogen receptor [2] = target: T1, Estrogen receptor (Homo sapiens, UniProt P03372); test: Induction of ERalpha degradation in human MCF7 cells by immunofluorescence assay; assay type: cell-based
T1 sequence (P03372 whole entry): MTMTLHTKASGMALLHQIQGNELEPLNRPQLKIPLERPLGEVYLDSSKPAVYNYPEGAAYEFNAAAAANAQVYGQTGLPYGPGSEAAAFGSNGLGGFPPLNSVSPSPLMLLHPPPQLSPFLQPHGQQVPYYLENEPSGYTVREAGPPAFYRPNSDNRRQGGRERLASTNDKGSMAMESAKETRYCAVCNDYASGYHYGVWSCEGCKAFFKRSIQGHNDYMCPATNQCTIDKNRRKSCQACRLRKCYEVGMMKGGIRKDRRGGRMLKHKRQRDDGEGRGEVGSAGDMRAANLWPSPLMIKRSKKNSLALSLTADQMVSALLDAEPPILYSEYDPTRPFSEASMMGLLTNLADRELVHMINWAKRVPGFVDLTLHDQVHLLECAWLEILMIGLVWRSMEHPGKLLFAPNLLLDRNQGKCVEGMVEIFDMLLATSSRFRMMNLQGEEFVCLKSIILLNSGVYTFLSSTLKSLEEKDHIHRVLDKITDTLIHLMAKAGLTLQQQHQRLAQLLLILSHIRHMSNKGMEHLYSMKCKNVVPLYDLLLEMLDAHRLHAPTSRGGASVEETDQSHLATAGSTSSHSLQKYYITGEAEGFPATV

[3] = target: T2, Estrogen receptor (Homo sapiens) (UniProt P03372); test: Induction of ERalpha degradation in human MCF7 cells assessed as maximum degradation by immunofluorescence assay relative to control; assay type: cell-based
T2 sequence (whole entry): T1 sequence (P03372 whole entry)

[4] = Distribution coefficient, logD of the compound at pH 7.4; conditions: octanol/water
[5] = Protein binding in human plasma assessed as unbound fraction; assay type: ADME, cell-free
in vitro = conditions: dog, MDCK
[6] = Apparent permeability across basolateral to apical side in MDCK cells; assay type: ADME, cell-based, Canis lupus familiaris; conditions: dog
[7] = Oral bioavailability in rat; assay type: ADME, organism-based; conditions: in vivo
[8] = Clearance in rat at 1 mg/kg, iv; assay type: ADME, organism-based; conditions: in vivo
[9] = Volume of distribution at steady state in rat; assay type: ADME; conditions: in vivo, read-out: Vdss
MCF7 [10] = test: Antiproliferation activity against human MCF7 cells assessed as reduction in cell viability measured by CellTiter-Glo luminescent assay; assay type: functional, cell-based
Estrogen receptor [11] = target: T1, Estrogen receptor; test: Displacement of fluorescein PGC1alpha from recombinant ERalpha (unknown origin)
[12] = Half life in rat; assay type: ADME; conditions: in vivo
[13] = system: Estrogen receptor (Homo sapiens), P03372 [Y537S]; test: Induction of ERalpha Y537S mutant degradation expressed in human MCF7 cells assessed as maximum degradation by immunofluorescence assay relative to control; assay type: cell-based
Sequence of Estrogen receptor (Homo sapiens), P03372 [Y537S] (P03372 whole entry Y537S): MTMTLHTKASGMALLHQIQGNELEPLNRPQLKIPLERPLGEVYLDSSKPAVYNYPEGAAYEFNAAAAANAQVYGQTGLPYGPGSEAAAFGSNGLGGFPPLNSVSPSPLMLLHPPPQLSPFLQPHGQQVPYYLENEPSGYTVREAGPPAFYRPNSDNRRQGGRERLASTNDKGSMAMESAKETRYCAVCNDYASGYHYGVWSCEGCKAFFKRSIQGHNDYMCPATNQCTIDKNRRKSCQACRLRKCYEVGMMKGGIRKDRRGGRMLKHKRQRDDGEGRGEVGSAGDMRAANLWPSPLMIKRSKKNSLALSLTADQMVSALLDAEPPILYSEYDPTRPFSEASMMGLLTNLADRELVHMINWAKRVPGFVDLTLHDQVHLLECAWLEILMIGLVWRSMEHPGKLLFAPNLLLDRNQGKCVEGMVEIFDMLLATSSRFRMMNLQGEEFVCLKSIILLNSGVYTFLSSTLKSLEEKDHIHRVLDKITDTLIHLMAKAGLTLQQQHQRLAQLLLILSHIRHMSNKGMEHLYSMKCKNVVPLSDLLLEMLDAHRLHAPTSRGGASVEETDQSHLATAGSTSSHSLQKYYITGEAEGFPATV

MCF7 [14] = test: Antitumor activity against human MCF7 cells xenografted in mouse assessed as tumor growth inhibition at 60 mg/kg, po QD for 4 weeks; assay type: functional, organism-based
MCF7 [15] = test: Antitumor activity against human MCF7 cells xenografted in mouse assessed as tumor growth inhibition at 100 mg/kg, po measured after 4 weeks; assay type: functional, organism-based
[16] = Toxicity in mouse xenografted with human MCF7 cells assessed as body weight loss at 1 to 100 mg/kg, po administered for 4 weeks; assay type: organism-based; conditions: in vivo, 672 h, dose 1-100 mg/kg
MCF7 [17] = test: Antitumor activity against human MCF7 cells xenografted in po dosed mouse assessed as tumor growth inhibition measured after 4 weeks; assay type: functional, organism-based; conditions: dose 10-100 mg/kg
Estrogen receptor [18] = target: Estrogen receptor (Homo sapiens, UniProt P03372, Y537S); test: Induction of ERalpha Y537S mutant degradation expressed in human MCF7 cells by immunofluorescence assay; assay type: cell-based
Sequence of Estrogen receptor (Homo sapiens, UniProt P03372, Y537S) (P03372 whole entry Y537S): as above

[19] = AUC in mouse at 10 mg/kg, po; assay type: ADME, organism-based; design: dose 10 mg/kg; conditions: in vivo
[20] = AUC in mouse at 100 mg/kg, po; assay type: ADME, organism-based; design: dose 100 mg/kg; conditions: in vivo

SMILES	solubility kinetic [1]	DC50 (Estrogen receptor [2])	%max [3]	logD [4]	further results
CC(C)C(=O)N1[C@H](c2c(F)cc(OCCN3CC(CF)C3)cc2F)c2[nH]c3ccccc3c2C[C@H]1C	135 µM (≈ 67.4 µg/mL)	0.11 nM	95%		
C[C@H](CF)C(=O)N1[C@H](c2c(F)cc(OCCN3CC(CF)C3)cc2F)c2[nH]c3ccccc3c2C[C@H]1C	102 µM (≈ 52.8 µg/mL)	0.4 nM	96%	2.5	
C[C@@H]1Cc2c([nH]c3ccccc23)[C@@H](c2c(F)cc(OCCN3CC(CF)C3)cc2F)N1C(=O)C1CC1	181 µM (≈ 90.1 µg/mL)	3 nM	89%	2.1	
C[C@@H]1Cc2c([nH]c3ccccc23)[C@@H](c2c(F)cc(OC3CN(CCCF)C3)cc2F)N1C(=O)C1(F)CC1	13 µM (≈ 6.7 µg/mL)	0.32 nM	95%	4.1	
C[C@@H]1Cc2c([nH]c3ccccc23)[C@@H](c2c(F)cc(OCCN3CC(CF)C3)cc2F)N1C(=O)C(C)(C)C	92 µM (≈ 47.3 µg/mL)	0.49 nM	90%	3.3	
CC(CO)C(=O)N1[C@H](c2c(F)cc(OCCN3CC(CF)C3)cc2F)c2[nH]c3ccccc3c2C[C@H]1C (some centres undefined)	156 µM (≈ 80.4 µg/mL)	4 nM	91%	1.8	
C[C@@H]1Cc2c([nH]c3ccccc23)[C@@H](c2c(F)cc(OCCN3CC(CF)C3)cc2F)N1C(=O)C1COC1	117 µM (≈ 60.1 µg/mL)	4 nM	92%	1.8	
C[C@@H]1Cc2c([nH]c3ccccc23)[C@@H](c2c(F)cc(OCCN3CC(CF)C3)cc2F)N1C(=O)[C@@H](C)CF	115 µM (≈ 59.5 µg/mL)	0.34 nM	98%	2.5	
C[C@@H]1Cc2c([nH]c3ccccc23)[C@@H](c2c(F)cc(OC3CN(CCCF)C3)cc2F)N1CC(C)(C)F	< 1 µM		100%		fraction unbound [5]: < 0.001; Papp A→B (in vitro): 0.4 ×10⁻⁶ cm/s; Papp B→A [6]: 0.2 ×10⁻⁶ cm/s
C[C@@H]1Cc2c([nH]c3ccccc23)[C@@H](c2ccc(OCCN3CC(CF)C3)cc2F)N1S(C)(=O)=O	135 µM (≈ 66.1 µg/mL)	0.19 nM	93%	2.5	bioavailability [7]: 48%; clearance [8]: 10.2 mL/min/kg; Vd [9]: 9.6 L/kg; IC50 (MCF7 [10]): 0.4 nM; Papp A→B (in vitro): 4 ×10⁻⁶ cm/s; IC50 (Estrogen receptor [11]): 17 nM; half-life [12]: 11 h; Papp B→A [6]: 5 ×10⁻⁶ cm/s
C[C@@H]1Cc2c([nH]c3ccccc23)[C@@H](c2c(F)cc(OCCN3CC(CF)C3)cc2F)N1S(C)(=O)=O	113 µM (≈ 57.4 µg/mL)		93%	2.3	%max [13]: 86%; bioavailability [7]: 47%; clearance [8]: 27.5 mL/min/kg; Vd [9]: 17.3 L/kg; IC50 (MCF7 [10]): 0.5 nM; Papp A→B (in vitro): 4 ×10⁻⁶ cm/s; half-life [12]: 7 h; Papp B→A [6]: 4 ×10⁻⁶ cm/s
CC/C(=C(\c1ccccc1)c1ccc(OCCN(C)C)cc1)c1ccccc1					Activity (MCF7 [14]): Active
CC(=O)N1[C@H](c2c(F)cc(OCCN3CC(CF)C3)cc2F)c2[nH]c3ccccc3c2C[C@H]1C	53 µM (≈ 25 µg/mL)		91%	2.5	
C[C@@H]1Cc2c([nH]c3ccccc23)[C@@H](c2c(F)cc(OC3CN(CCCF)C3)cc2F)N1C(=O)C1(F)CCC1	< 1 µM	1.2 nM	96%	4.3	
C[C@@H]1Cc2c([nH]c3ccccc23)[C@@H](c2c(F)cc(OCCN3CC(CF)C3)cc2F)N1C(=O)C(C)(F)F	30 µM (≈ 15.6 µg/mL)	0.15 nM	95%		
C[C@@H]1Cc2c([nH]c3ccccc23)[C@@H](c2c(F)cc(OCCN3CC(CF)C3)cc2F)N1C(=O)CC1CC1	111 µM (≈ 56.8 µg/mL)	5 nM	95%	3.1	
C[C@@H]1Cc2c([nH]c3ccccc23)[C@@H](c2c(F)cc(OCCN3CC(CF)C3)cc2F)N1C(=O)C(C)(C)F	95 µM (≈ 49.2 µg/mL)		94%	3.2	bioavailability [7]: 33%; clearance [8]: 120 mL/min/kg; Vd [9]: 32 L/kg; Papp A→B (in vitro): 1 ×10⁻⁶ cm/s; half-life [12]: 3.1 h; Papp B→A [6]: 1 ×10⁻⁶ cm/s
C[C@@H]1Cc2c([nH]c3ccccc23)[C@@H](c2c(F)cc(OC3CN(CCCF)C3)cc2F)N1C(=O)C(C)(C)F	< 1 µM	0.42 nM	100%	4	
C[C@@H]1Cc2c([nH]c3ccccc23)[C@@H](c2c(F)cc(OCCN3CC(CF)C3)cc2F)N1C(=O)C1CNC1	96 µM (≈ 49.2 µg/mL)	> 10 nM		-0.2	
C[C@@H]1Cc2c([nH]c3ccccc23)[C@@H](c2ccc(OCCN3CC(CF)C3)cc2)N1S(C)(=O)=O	118 µM (≈ 55.6 µg/mL)	0.18 nM	93%	2.2	%max [13]: 82%; bioavailability [7]: 32%; clearance [8]: 7 mL/min/kg; Vd [9]: 7.7 L/kg; IC50 (MCF7 [10]): 0.5 nM; Papp A→B (in vitro): 5 ×10⁻⁶ cm/s; Activity (MCF7 [15]): Active; IC50 (Estrogen receptor [11]): 11 nM; Activity [16]: Non-Toxic; half-life [12]: 13 h; Activity (MCF7 [17]): Dose-Dependent Effect; Papp B→A [6]: 6 ×10⁻⁶ cm/s; DC50 (Estrogen receptor [18]): 1.2 nM; AUC [19]: 1.8 µM·h; AUC [20]: 28.9 µM·h
